According to the supplement of paper PMC8967900:

What was measured:
Assay in all cases: selective drug sensitivity score (sDSS, relative to normal bone marrow) (sDSS (score)); higher = more potent and effective on the cell line relative to normal bone marrow cells
Details in all cases: 72 h
KOPN-8 = tested on: KOPN-8
MHH-CALL-2 = tested on: MHH-CALL-2
PF-382 = tested on: PF-382
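Further: ALL cell lines in 384-well plates, five doses spanning 10,000-fold, each plate scaled between vehicle and 100 µmol/L benzalkonium chloride controls, sDSS an adapted area-under-curve metric.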

Row | SMILES | selective drug sensitivity score (KOPN-8) | selective drug sensitivity score (MHH-CALL-2) | selective drug sensitivity score (PF-382)
1 | COc1cc([C@@H]2c3cc4c(cc3[C@@H](O[C@@H]3O[C@@H]5CO[C@@H](C)O[C@H]5[C@H](O)[C@H]3O)[C@H]3COC(=O)[C@H]23)OCO4)cc(OC)c1O [Etoposide] (top concentration 10000 nM) | 24.9 | 13.2 | 13.5
2 | CCCCCCCCc1ccc(CCC(N)(CO)CO)cc1 [Fingolimod] (top concentration 10000 nM) | 3.18 | 8.88 | -0.62
3 | O=C(NOCCO)c1ccc2cncn2c1Nc1ccc(I)cc1F [GDC-0623] (top concentration 2500 nM) | -1.2 | 0.6 | -3.3
4 | C[C@H]1CN(C2COC2)CCN1c1ccc(Nc2cc(-c3ccnc(N4CCn5c(cc6c5CC(C)(C)C6)C4=O)c3CO)cn(C)c2=O)nc1 [GDC-0853] (top concentration 1000 nM) | 0 | 0 | 0
5 | CCNc1nc(Nc2cc(F)c(C(=O)N3CCOCC3)cc2OC)ncc1C(F)(F)F [GNE-7915] (top concentration 1000 nM) | -0.06 | 1.74 | -0.06
6 | COc1cc2ncnc(Nc3ccc(F)c(Cl)c3)c2cc1OCCCN1CCOCC1 [Gefitinib] (top concentration 10000 nM) | 2.96 | 1.86 | 0.26
7 | CN1CC[C@@H](NC(=O)Nc2ccc(C#N)cc2)C[C@@H]1c1nc2ccccc2[nH]1 [Glasdegib] (top concentration 1000 nM) | 0 | 0 | 0
8 | CN1CCN(C2CCN(C(=O)Nc3cc(Oc4ccc(NC(=O)C5(C(=O)Nc6ccc(F)cc6)CC5)c(F)c4)ccn3)CC2)CC1 [Golvatinib] (top concentration 2500 nM) | -0.14 | 0.26 | -0.14
9 | CC(C)C[C@H](NC(=O)[C@@H](COC(C)(C)C)NC(=O)[C@H](Cc1ccc(O)cc1)NC(=O)[C@H](CO)NC(=O)[C@H](Cc1c[nH]c2ccccc12)NC(=O)[C@H](Cc1cnc[nH]1)NC(=O)[C@@H]1CCC(=O)N1)C(=O)N[C@@H](CCCNC(=N)N)C(=O)N1CCC[C@H]1C(=O)NNC(N)=O [Goserelin] (top concentration 10000 nM) | -0.06 | -0.06 | -0.06
10 | O=S(=O)(c1cccc2c(O)nccc12)N1CCCNCC1 [Hydroxyfasudil] (top concentration 19000 nM) | 0.78 | 5.88 | -0.92
11 | COc1cc(C(=O)O)ccc1NC(=O)[C@@H]1N[C@@H](CC(C)(C)C)[C@](C#N)(c2ccc(Cl)cc2F)[C@H]1c1cccc(Cl)c1F [Idasanutlin] (top concentration 10000 nM) | 25.7 | 18.7 | -12.2
12 | CCN1CCN(c2ccc(Nc3cc(N(C)C(=O)Nc4c(Cl)c(OC)cc(OC)c4Cl)ncn3)cc2)CC1 [Infigratinib] (top concentration 1000 nM) | 0 | 0 | 0
13 | O=C(Nc1cnn2ccc(N3CCC[C@@H]3c3cc(F)ccc3F)nc12)N1CC[C@H](O)C1 [Larotrectinib] (top concentration 1000 nM) | -0.62 | -0.52 | -0.62
14 | C[C@]1(O)C[C@@H](c2nc(-c3ccc4ccc(-c5ccccc5)nc4c3)c3c(N)nccn32)C1 [Linsitinib] (top concentration 10000 nM) | -0.38 | 2.32 | -2.88
15 | O=C(O)CC[C@H]1CC[C@@](c2cc(F)ccc2F)(S(=O)(=O)c2ccc(Cl)cc2)CC1 [MK-0752] (top concentration 1000 nM) | 0 | 3.8 | 0
16 | CNC(=O)[C@@H](NC(=O)[C@H](CC(C)C)[C@H](O)C(=O)NO)C(C)(C)C [Marimastat] (top concentration 10000 nM) | 7.22 | 9.42 | -0.68
17 | Clc1ccc(C(c2ccccc2Cl)C(Cl)Cl)cc1 (stereo not given) [Mitotane] (top concentration 10000 nM) | 4.32 | 1.32 | 0.12
18 | CCS(=O)(=O)Nc1ccc(Oc2ccc(F)cc2F)c(-c2cn(C)c(=O)c3[nH]ccc23)c1 [Mivebresib] (top concentration 10000 nM) | 16.6 | 14.8 | 8
19 | CN1C(=O)N[C@H](Cc2c[nH]c3c(Cl)cccc23)C1=O [Necrostatin_2] (top concentration 10000 nM) | -0.08 | -0.08 | -0.08
20 | O=c1ncn2nc(Sc3ccc(F)cc3F)ccc2c1-c1c(Cl)cccc1Cl [Neflamapimod] (top concentration 10000 nM) | 4 | 1.8 | 0.5

Row | SMILES | selective drug sensitivity score (KOPN-8) | selective drug sensitivity score (MHH-CALL-2) | selective drug sensitivity score (PF-382)
21 | CC(O)c1cc(C(=O)N[C@@H](C)Cn2ccc(-c3ccc(C#N)c(Cl)c3)n2)n[nH]1 (stereo not given in full) [ODM-201] (top concentration 2500 nM) | 0.02 | 0.02 | 0.52
22 | C=CC(=O)Nc1cccc(Oc2nc(Nc3ccc(N4CCN(C)CC4)cc3)nc3ccsc23)c1 [Olmutinib] (top concentration 1000 nM) | -0.02 | 6.88 | -0.02
23 | C=CC(=O)Nc1cc(Nc2nccc(-c3cn(C)c4ccccc34)n2)c(OC)cc1N(C)CCN(C)C [Osimertinib] (top concentration 2500 nM) | -0.82 | 3.18 | -2.12
24 | O=C(Nc1cc(Cl)cc2c1[nH]c1cnccc12)c1cccnc1 [PS-1145] (top concentration 25000 nM) | -0.46 | 6.74 | -0.46
25 | CC(=O)O[C@H]1C(=O)[C@@]2(C)[C@H]([C@H](OC(=O)c3ccccc3)[C@]3(O)C[C@H](OC(=O)[C@H](O)[C@@H](NC(=O)c4ccccc4)c4ccccc4)C(C)=C1C3(C)C)[C@]1(OC(C)=O)CO[C@@H]1C[C@@H]2O [Paclitaxel] (top concentration 1000 nM) | 22.4 | 17.3 | 13.2
26 | CCCCCCCCCCCCCCCCCCOP(=O)([O-])OC1CC[N+](C)(C)CC1 [Perifosine] (top concentration 2500 nM) | -0.26 | -0.26 | -0.36
27 | CC[C@@H]1C(=O)OC[C@@H]1Cc1cncn1C [Pilocarpine] (top concentration 40000 nM) | -1.56 | 4.44 | -1.56
28 | Nc1cccc2c1C(=O)N(C1CCC(=O)NC1=O)C2=O (stereo not given) [Pomalidomide] (top concentration 10000 nM) | -0.26 | -0.16 | -0.26
29 | Cc1nc(=O)c2cc(CN(C)c3ccc(C(=O)N[C@@H](CCC(=O)O)C(=O)O)s3)ccc2[nH]1 [Raltitrexed] (top concentration 1000 nM) | 28.4 | 19.6 | 13.1
30 | C=CC(=O)Nc1cccc(Nc2nc(Nc3ccc(N4CCN(C(C)=O)CC4)cc3OC)ncc2C(F)(F)F)c1 [Rociletinib] (top concentration 10000 nM) | 1.14 | 1.94 | 0.64
31 | CC(C)N(CCCNC(=O)Nc1ccc(C(C)(C)C)cc1)C[C@H]1O[C@@H](n2cc(Br)c3c(N)ncnc32)[C@H](O)[C@@H]1O [SGC0946] (top concentration 10000 nM) | -0.72 | 2.18 | 0.28
32 | CC[C@H](CO)Nc1nc(NCc2ccccc2)c2ncn(C(C)C)c2n1 [Seliciclib] (top concentration 10000 nM) | 4.26 | 1.26 | -1.04
33 | CN1CCN(C(=O)c2ccc3cc(CCNc4ncnc5ccc(C#N)cc45)ccc3c2)CC1 [Senexin_B] (top concentration 1000 nM) | -0.6 | -0.1 | -0.1
34 | Clc1ccccc1C(c1ccccc1)(c1ccccc1)n1cccn1 [TRAM-34] (top concentration 1000 nM) | -0.08 | 1.12 | -0.08
35 | C=CC[C@@H]1/C=C(\C)C[C@H](C)C[C@H](OC)[C@H]2O[C@@](O)(C(=O)C(=O)N3CCCC[C@H]3C(=O)O[C@H](/C(C)=C/[C@@H]3CC[C@@H](O)[C@H](OC)C3)[C@H](C)[C@@H](O)CC1=O)[C@H](C)C[C@@H]2OC [Tacrolimus] (top concentration 10000 nM) | 4.68 | 24.6 | 0.78
36 | CCN(c1cc(-c2ccc(CN3CCOCC3)cc2)cc(C(=O)NCc2c(C)cc(C)[nH]c2=O)c1C)C1CCOCC1 [Tazemetostat] (top concentration 10000 nM) | -0.08 | 6.72 | -0.08
37 | COc1cc2c(Nc3ccc(Cl)c(Cl)c3F)ncnc2cc1OC[C@@H]1C[C@@H]2CN(C)C[C@@H]2C1 [Tesevatinib] (top concentration 1000 nM) | -0.86 | 1.44 | -1.06
38 | O=C1CCC(N2C(=O)c3ccccc3C2=O)C(=O)N1 (stereo not given) [Thalidomide] (top concentration 10000 nM) | -0.14 | -0.14 | -0.14
39 | O=C1NC(=O)[C@@H](c2cn3c4c(cccc24)CCC3)[C@@H]1c1c[nH]c2ccccc12 [Tivantinib] (top concentration 1000 nM) | 3.08 | 8.48 | 2.78
40 | C[C@@H]1CCN(C(=O)CC#N)C[C@@H]1N(C)c1ncnc2[nH]ccc12 [Tofacitinib] (top concentration 5000 nM) | -7.66 | -7.86 | -7.36
